Columns and labels:
Viola tricolor [1] = assay: Post-emergence herbicidal effect; type: in vivo; conditions: assessed visually after about 3 weeks vs untreated controls
In short: (§1)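 Visual % damage vs untreated plants, ~3 wk after spraying (100% = dead, 0% = as control). Post-emergence foliar spray at one-leaf stage; WP/EC in water, 600–800 L/ha + 0.2% wetting agent; sandy loam, greenhouse.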

Veronica persica [2] = assay: Post-emergence herbicidal effect; type: in vivo; conditions: assessed visually after about 3 weeks vs untreated controls
In short: as §1

Setaria viridis [3] = assay: Post-emergence herbicidal effect; type: in vivo; conditions: assessed visually after about 3 weeks vs untreated controls
In short: as §1

Echinochloa crus-galli [4] = assay: Post-emergence herbicidal effect; type: in vivo; conditions: assessed visually after about 3 weeks vs untreated controls
In short: as §1

Amaranthus retroflexus [5] = assay: Post-emergence herbicidal effect; type: in vivo; conditions: assessed visually after about 3 weeks vs untreated controls
In short: as §1

Abutilon theophrasti [6] = assay: Post-emergence herbicidal effect; type: in vivo; conditions: assessed visually after about 3 weeks vs untreated controls
In short: as §1

Ipomoea purpurea = assay: Post-emergence herbicidal effect; type: in vivo; conditions: assessed visually after about 3 weeks vs untreated controls
In short: as §1

Matricaria inodora [7] = assay: Pre-emergence herbicidal effect; type: in vivo; conditions: scored visually after 3 weeks
In short: (§2)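 After seeds are covered with sandy loam soil, the formulated compound is sprayed onto the soil surface as an aqueous suspension or emulsion containing 0.2% wetting agent. Three weeks later in the greenhouse, damage is rated by eye from 0% (like controls) to 100% (dead).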

Viola tricolor [8] = assay: Pre-emergence herbicidal effect; type: in vivo; conditions: scored visually after 3 weeks
In short: as §2

Veronica persica [9] = assay: Pre-emergence herbicidal effect; type: in vivo; conditions: scored visually after 3 weeks
In short: as §2

Polygonum convolvulus [10] = assay: Pre-emergence herbicidal effect; type: in vivo; conditions: scored visually after 3 weeks
In short: as §2

Setaria viridis [11] = assay: Pre-emergence herbicidal effect; type: in vivo; conditions: scored visually after 3 weeks
In short: as §2

Echinochloa crus-galli [12] = assay: Pre-emergence herbicidal effect; type: in vivo; conditions: scored visually after 3 weeks
In short: as §2

Stellaria media [13] = assay: Pre-emergence herbicidal effect; type: in vivo; conditions: scored visually after 3 weeks
In short: as §2

Amaranthus retroflexus [14] = assay: Pre-emergence herbicidal effect; type: in vivo; conditions: scored visually after 3 weeks
In short: as §2

Alopecurus myosuroides = assay: Pre-emergence herbicidal effect; type: in vivo; conditions: scored visually after 3 weeks
In short: as §2

Abutilon theophrasti [15] = assay: Pre-emergence herbicidal effect; type: in vivo; conditions: scored visually after 3 weeks
In short: as §2

Cyperus esculentus = assay: Pre-emergence herbicidal effect; type: in vivo; conditions: Dosage 320 g/ha, scored visually after 3 weeks
In short: as §2

Lolium multiflorum = assay: Pre-emergence herbicidal effect; type: in vivo; conditions: scored visually after 3 weeks
In short: as §2

Matricaria inodora [16] = assay: Post-emergence herbicidal effect; type: in vivo; conditions: assessed visually after about 3 weeks vs untreated controls
In short: as §1

Polygonum convolvulus [17] = assay: Post-emergence herbicidal effect; type: in vivo; conditions: 320 g/ha, assessed visually after about 3 weeks vs untreated controls
In short: as §1

Stellaria media [18] = assay: Post-emergence herbicidal effect; type: in vivo; conditions: assessed visually after about 3 weeks vs untreated controls
In short: as §1

logP (HCOOH) = type: physicochemical; conditions: HCOOH
Excerpt: Table 2 (physicochemical characterization of selected synthesis examples)

SMILES | post-emergence efficacy VIOTR (Viola tricolor [1]; 320 g/ha) [%] | post-emergence efficacy VERPE (Veronica persica [2]; 80 g/ha) [%] | post-emergence efficacy VERPE (Veronica persica [2]; 320 g/ha) [%] | post-emergence efficacy AMARE (Amaranthus retroflexus [5]; 320 g/ha) [%] | MATIN pre-emergence efficacy (herbicidal activity) (Matricaria inodora [7]; Dosage 80 g/ha) [%] | MATIN pre-emergence efficacy (herbicidal activity) (Matricaria inodora [7]; Dosage 320 g/ha) [%] | VIOTR pre-emergence efficacy (herbicidal activity) (Viola tricolor [8]; Dosage 320 g/ha) [%] | VERPE pre-emergence efficacy (herbicidal activity) (Veronica persica [9]; Dosage 80 g/ha) [%] | VERPE pre-emergence efficacy (herbicidal activity) (Veronica persica [9]; Dosage 320 g/ha) [%] | POLCO pre-emergence efficacy (herbicidal activity) (Polygonum convolvulus [10]; Dosage 320 g/ha) [%] | SETVI pre-emergence efficacy (herbicidal activity) (Setaria viridis [11]; Dosage 80 g/ha) [%] | SETVI pre-emergence efficacy (herbicidal activity) (Setaria viridis [11]; Dosage 320 g/ha) [%] | ECHCG pre-emergence efficacy (herbicidal activity) (Echinochloa crus-galli [12]; Dosage 320 g/ha) [%] | STEME pre-emergence efficacy (herbicidal activity) (Stellaria media [13]; Dosage 80 g/ha) [%] | STEME pre-emergence efficacy (herbicidal activity) (Stellaria media [13]; Dosage 320 g/ha) [%] | AMARE pre-emergence efficacy (herbicidal activity) (Amaranthus retroflexus [14]; Dosage 80 g/ha) [%] | AMARE pre-emergence efficacy (herbicidal activity) (Amaranthus retroflexus [14]; Dosage 320 g/ha) [%] | ALOMY pre-emergence efficacy (herbicidal activity) (Alopecurus myosuroides; Dosage 320 g/ha) [%] | CYPES pre-emergence efficacy (herbicidal activity) (Cyperus esculentus) [%] | LOLMU pre-emergence efficacy (herbicidal activity) (Lolium multiflorum; Dosage 320 g/ha) [%] | other results
Cc1cc2c(s1)CCCC2Nc1ncc(S(C)(=O)=O)c(N)n1 (racemic) [compound 59] | 80 | 90 | 100 | 90 | 100 | 100 | 100 | 100 | 100 | 100 | 80 | 100 | 100 | 100 | 100 | 100 | 100 | 80 | 80 | 90 | post-emergence efficacy VIOTR (Viola tricolor [1]; 80 g/ha): 80%; post-emergence efficacy SETVI (Setaria viridis [3]; 80 g/ha): 90%; post-emergence efficacy SETVI (Setaria viridis [3]; 320 g/ha): 90%; post-emergence efficacy ECHCG (Echinochloa crus-galli [4]; 80 g/ha): 20%; post-emergence efficacy ECHCG (Echinochloa crus-galli [4]; 320 g/ha): 100%; post-emergence efficacy AMARE (Amaranthus retroflexus [5]; 80 g/ha): 60%; post-emergence efficacy ABUTH (Abutilon theophrasti [6]; 80 g/ha): 20%; post-emergence efficacy ABUTH (Abutilon theophrasti [6]; 320 g/ha): 20%; post-emergence efficacy PHBPU (Ipomoea purpurea; 80 g/ha): 80%; post-emergence efficacy PHBPU (Ipomoea purpurea; 320 g/ha): 80%; VIOTR pre-emergence efficacy (herbicidal activity) (Viola tricolor [8]; Dosage 80 g/ha): 100%; POLCO pre-emergence efficacy (herbicidal activity) (Polygonum convolvulus [10]; Dosage 80 g/ha): 80%; ECHCG pre-emergence efficacy (herbicidal activity) (Echinochloa crus-galli [12]; Dosage 80 g/ha): 100%; ABUTH pre-emergence efficacy (herbicidal activity) (Abutilon theophrasti [15]; Dosage 80 g/ha): 80%; ABUTH pre-emergence efficacy (herbicidal activity) (Abutilon theophrasti [15]; Dosage 320 g/ha): 100%
Cc1cc2c(s1)CCCC2Nc1nc(N)c([S+](C)[O-])c(C(F)F)n1 (racemic) [compound 264] | 90 | 90 | 90 | 90 | 90 | 100 | 100 | 100 | 100 | 100 | 80 | 90 | 100 | 100 | 100 | 100 | 100 | 60 | 100 | 60 | post-emergence efficacy MATIN (Matricaria inodora [16]; 80 g/ha): 80%; post-emergence efficacy MATIN (Matricaria inodora [16]; 320 g/ha): 90%; post-emergence efficacy VIOTR (Viola tricolor [1]; 80 g/ha): 90%; post-emergence efficacy POLCO (Polygonum convolvulus [17]): 80%; post-emergence efficacy SETVI (Setaria viridis [3]; 320 g/ha): 80%; post-emergence efficacy ECHCG (Echinochloa crus-galli [4]; 320 g/ha): 90%; post-emergence efficacy STEME (Stellaria media [18]; 80 g/ha): 100%; post-emergence efficacy STEME (Stellaria media [18]; 320 g/ha): 100%; post-emergence efficacy AMARE (Amaranthus retroflexus [5]; 80 g/ha): 90%; post-emergence efficacy ABUTH (Abutilon theophrasti [6]; 320 g/ha): 90%; VIOTR pre-emergence efficacy (herbicidal activity) (Viola tricolor [8]; Dosage 80 g/ha): 100%; ALOMY pre-emergence efficacy (herbicidal activity) (Alopecurus myosuroides; Dosage 80 g/ha): 60%
N#Cc1cc2c(s1)C(Nc1ncc(C(F)(F)F)c(N)n1)CCC2 (racemic) [compound 285] | 100 | 60 | 80 | 100 | 100 | 100 | 100 | 100 | 100 | 100 | 70 | 100 | 100 | 100 | 100 | 100 | 100 | 60 | 50 | 90 | post-emergence efficacy MATIN (Matricaria inodora [16]; 320 g/ha): 80%; post-emergence efficacy VIOTR (Viola tricolor [1]; 80 g/ha): 80%; post-emergence efficacy STEME (Stellaria media [18]; 80 g/ha): 90%; post-emergence efficacy STEME (Stellaria media [18]; 320 g/ha): 100%; post-emergence efficacy AMARE (Amaranthus retroflexus [5]; 80 g/ha): 100%; post-emergence efficacy PHBPU (Ipomoea purpurea; 320 g/ha): 60%; VIOTR pre-emergence efficacy (herbicidal activity) (Viola tricolor [8]; Dosage 80 g/ha): 100%; ECHCG pre-emergence efficacy (herbicidal activity) (Echinochloa crus-galli [12]; Dosage 80 g/ha): 60%; ALOMY pre-emergence efficacy (herbicidal activity) (Alopecurus myosuroides; Dosage 80 g/ha): 50%; LOLMU pre-emergence efficacy (herbicidal activity) (Lolium multiflorum; Dosage 80 g/ha): 80%
O=S1(=O)CCCc2nc(N[C@@H]3CCCc4sccc43)ncc21 [compound 73] | 60 | 80 | 100 | 80 | 100 | 100 | 100 | 100 | 100 | 100 | 80 | 100 | 100 | 100 | 100 | 100 | 100 | 90 | 100 | 100 | post-emergence efficacy MATIN (Matricaria inodora [16]; 80 g/ha): 100%; post-emergence efficacy MATIN (Matricaria inodora [16]; 320 g/ha): 100%; post-emergence efficacy ECHCG (Echinochloa crus-galli [4]; 320 g/ha): 100%; post-emergence efficacy STEME (Stellaria media [18]; 80 g/ha): 90%; post-emergence efficacy STEME (Stellaria media [18]; 320 g/ha): 100%; logP (HCOOH) (logP (HCOOH)): oily; logP (HCOOH): 2.38;; POLCO pre-emergence efficacy (herbicidal activity) (Polygonum convolvulus [10]; Dosage 80 g/ha): 100%; ECHCG pre-emergence efficacy (herbicidal activity) (Echinochloa crus-galli [12]; Dosage 80 g/ha): 100%; ALOMY pre-emergence efficacy (herbicidal activity) (Alopecurus myosuroides; Dosage 80 g/ha): 80%

Source: patent US10251395B2, “Substituted furano-/thienocycloalkylamino-2-pyrimidine derivatives and use thereof for controlling undesired plant growth” (Bayer CropScience Aktiengesellschaft, priority 2015, dated 2019)
